From patent publication US20250049798A1, “WEE1 PROTEIN KINASE DEGRADATION AGENT AND USE THEREOF” (HANGZHOU GLUBIO PHARMACEUTICAL CO. LTD., priority 2021, published 2025)
Like-named read-outs stand apart in the source and are kept apart here.

How the values were obtained:
HiBiT tagged Wee1 = HiBiT tagged Wee1 (Homo sapiens, UniProt P30291); assay: Wee1 protein degradation assay (HiBiT assay); type: cell-based; settings: for Dmax: maximum percentage of Wee1 degradation, read-out: HiBiT Wee1: Dmax
Sequence of HiBiT tagged Wee1 (P30291 whole entry): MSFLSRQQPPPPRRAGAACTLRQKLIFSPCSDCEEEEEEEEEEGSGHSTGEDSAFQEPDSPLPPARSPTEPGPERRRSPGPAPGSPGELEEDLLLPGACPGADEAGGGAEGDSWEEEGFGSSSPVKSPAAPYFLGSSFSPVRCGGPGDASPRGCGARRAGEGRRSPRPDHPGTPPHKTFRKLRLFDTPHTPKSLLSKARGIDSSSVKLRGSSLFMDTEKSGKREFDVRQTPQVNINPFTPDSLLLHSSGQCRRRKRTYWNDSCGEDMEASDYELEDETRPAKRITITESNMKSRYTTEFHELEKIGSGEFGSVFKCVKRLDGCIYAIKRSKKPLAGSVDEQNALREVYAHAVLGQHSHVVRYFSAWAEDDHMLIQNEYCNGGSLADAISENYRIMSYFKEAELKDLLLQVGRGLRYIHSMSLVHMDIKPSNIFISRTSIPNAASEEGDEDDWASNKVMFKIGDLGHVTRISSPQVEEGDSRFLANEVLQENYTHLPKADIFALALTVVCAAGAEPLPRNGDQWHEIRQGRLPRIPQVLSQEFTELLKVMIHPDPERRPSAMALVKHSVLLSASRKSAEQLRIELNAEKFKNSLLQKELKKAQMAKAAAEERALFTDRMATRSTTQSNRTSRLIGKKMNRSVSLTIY

NCI-H1048 cells = assay: NCI-H1048 cell proliferation assay (CTG assay); type: cell-based; settings: Homo sapiens, 120 hours, read-out: CTG cellular assay_H1048: IC50
Method: NCI-H1048 Cell Proliferation Assay (CTG Assay) The following is an example of an assay that can be used to determine the anti-proliferative activity of Wee1 PROTACs in a small cell lung cancer cell line, NCI-H1048 (ATCC Cat #CRL-5853). This cell line was cultured in RPMI-1640 medium supplemented with 10% FBS. About 1,200 NCI-H1048 cells in 50 μL of culture medium were seeded into a 384-well plate (Cat #3764, Corning), pre-spotted with compounds using the Echo 650 liquid handler (Beckman). The dose-response-curve (DRC) typically has 10-points with a highest concentration at 10 μM, and half-log diluted to as low as 0.316 nM, plus a DMSO control. Assay plates were incubated at 37° C. with 5% CO2 for 120 hours. After that, 20 μL of the CellTiter-Glo (CTG) Luminescent Cell Viability Assay Reagent (Cat #G7573, Promega) was added to each well and incubated at room temperature for 30 minutes. Luminescence was then measured with Pherastar microplate reader (BMG Labtech). All percentage of cell growth inhibition curves were processed using Collaborative Drug Discovery Vault.
Cell viability reads in compound-treated wells were normalized to that of DMSO control and expressed as Percent of Control (PoC, y). A four Parameter Logistic Model was used to determine the compound's EC50 and DC50, using the following equation: […]

[1] = engineered HT-1080 cells, 20 hours

Row | Compound | DC50 (HiBiT tagged Wee1; [1]) [µM] | Dmax (HiBiT tagged Wee1; [1]) [%] | IC50 (NCI-H1048 cells) [µM] | Dmax (HiBiT tagged Wee1; HT-1080, […]) [%]
1 | C[C@]1(O)CC/C=C\Cn2c(=O)c3cnc(Nc4ccc(N5CCN(CC6CCN(c7ccc(NC8CCC(=O)NC8=O)cc7F)CC6)CC5)cc4)nc3n2-c2cccc1n2 (single isomer, unassigned) [Compound 141] | < 0.1 | > 75 | ≤ 0.025 | –
2 | C=CCn1c(=O)c2cnc(Nc3ccc(N4CCC(CN5CCC(c6cccc7c6n(C)c(=O)n7C6CCC(=O)NC6=O)CC5)CC4)cc3)nc2n1-c1ccc2c(n1)[C@@](O)(CC)CC2 (stereo partly drawn) [Compound 54] | < 0.1 | 50 to 75 | 0.025 to 0.1 | –
3 | C=CCn1c(=O)c2cnc(Nc3ccc(N4CCN(CC5CCN(c6ncc(NC7CCC(=O)NC7=O)cc6F)CC5)[C@H](C)C4)cc3)nc2n1-c1ccc2c(n1)[C@@](O)(CC)CC2 (stereo partly drawn) [Compound 193] | < 0.1 | > 75 | ≤ 0.025 | –
4 | CN1CN(c2c(Cl)cccc2Cl)C(=O)c2cnc(Nc3ccc(N4CCN(CCCNc5cccc6c5C(=O)N(C5CCC(=O)NC5=O)C6=O)CC4)cc3)nc21 (stereo not drawn) [Compound 17] | > 1 | – | > 0.1 | < 50
5 | C=CCn1c(=O)c2cnc(Nc3ccc(N4CCN(C5CCN(c6ncc(NC7CCC(=O)NC7=O)cc6F)CC5)CC4)cc3)nc2n1-c1ccc2c(n1)[C@@](O)(CC)CC2 (stereo partly drawn) [Compound 182] | < 0.1 | > 75 | ≤ 0.025 | –
6 | C=CCn1c(=O)c2cnc(Nc3ccc(N4CCC(CN5CCN(c6ccc(NC7CCC(=O)NC7=O)cc6F)CC5)CC4)cc3)nc2n1-c1cccc(C(C)(C)O)n1 (single isomer, unassigned) [Compound 100-A] | < 0.1 | > 75 | ≤ 0.025 | –
7 | C=CCn1c(=O)c2cnc(Nc3ccc(N4CCN(C5CC6(C5)CN(c5ccc(NC7CCC(=O)NC7=O)cc5F)C6)CC4)cc3)nc2n1-c1ccc2c(n1)[C@@](O)(CC)CC2 (stereo partly drawn) [Compound 168] | < 0.1 | > 75 | ≤ 0.025 | –
8 | C=CCn1c(=O)c2cnc(Nc3ccc(N4CC5(CC(N6CCN(c7ccc(NC8CCC(=O)NC8=O)cc7F)CC6)C5)C4)cc3)nc2n1-c1ccc2c(n1)[C@@](O)(CC)CC2 (stereo partly drawn) [Compound 173] | < 0.1 | > 75 | ≤ 0.025 | –
9 | C=CCn1c(=O)c2cnc(Nc3ccc(N4CCN(CC5CCN(c6ccc(NC7CCC(=O)NC7=O)cc6F)CC5)CC4)cc3)nc2n1-c1ccc2c(n1)[C@](C)(O)CC2 (single isomer, unassigned) [Compound 152-A] | < 0.1 | – | ≤ 0.025 | –
10 | C=CCn1c(=O)c2cnc(Nc3ccc(N4CCN(CC5CCN(c6ccc7c(N8CCC(=O)NC8=O)nn(C)c7c6)CC5)CC4)c(C)c3)nc2n1-c1ccc2c(n1)[C@@](O)(CC)CC2 [Compound 129] | < 0.1 | 50 to 75 | ≤ 0.025 | –
11 | C=CCn1c(=O)c2cnc(Nc3ccc(N4CCN(CC5CCN(c6ccc7c(N8CCC(=O)NC8=O)nn(C)c7c6)CC5)CC4)c(C)c3)nc2n1-c1ccc2c(n1)[C@](C)(O)CC2 [Compound 137] | < 0.1 | > 75 | ≤ 0.025 | –
12 | C=CCn1c(=O)c2cnc(Nc3ccc(N4CCC(N5CCC(c6ccc(NC7CCC(=O)NC7=O)cc6)CC5)CC4)cc3)nc2n1-c1cccc(C(C)(C)O)n1 (stereo not drawn) [Compound 70] | < 0.1 | > 75 | ≤ 0.025 | –
13 | C=CCn1c(=O)c2cnc(Nc3ccc(C4CCN(CC5CCN(c6cccc7c6n(C)c(=O)n7C6CCC(=O)NC6=O)CC5)CC4)c(C)c3)nc2n1-c1cccc(C(C)(C)O)n1 (stereo not drawn) [Compound 97] | – | 50 to 75 | ≤ 0.025 | –
14 | C=CCn1c(=O)c2cnc(Nc3ccc(N4CCN(CC5CCN(c6ccc(NC7CCC(=O)NC7=O)cc6Cl)CC5)CC4)cc3)nc2n1-c1ccc2c(n1)[C@@](O)(CC)CC2 (stereo partly drawn) [Compound 176] | < 0.1 | > 75 | ≤ 0.025 | –
15 | C=CCn1c(=O)c2cnc(Nc3ccc(C4CCN(C[C@@H]5CCN(c6ccc7c(c6)C(=O)N(C6CCC(=O)NC6=O)C7=O)C5)CC4)cc3)nc2n1-c1cccc(C(C)(C)O)n1 (stereo partly drawn) [Compound 37] | < 0.1 | 50 to 75 | 0.025 to 0.1 | –
16 | C=CCn1c(=O)c2cnc(Nc3ccc(N4CCN(C5CCN(c6ccc(NC7CCC(=O)NC7=O)cc6F)CC5)CC4)cc3)nc2n1-c1ccc2c(n1)[C@@](O)(CC)CC2 (stereo partly drawn) [Compound 157] | < 0.1 | – | ≤ 0.025 | –
17 | Cc1cc(Nc2ncc3c(n2)N(C)CN(c2c(Cl)cccc2Cl)C3=O)ccc1C1CCN(CC2CN(c3ccc4c(c3)C(=O)N(C3CCC(=O)NC3=O)C4=O)C2)CC1 (stereo not drawn) [Compound 18] | > 1 | < 50 | > 0.1 | –
18 | C=CCn1c(=O)c2cnc(Nc3ccc4c(c3)CN(CC3CCN(c5ccc6c(c5)C(=O)N(C5CCC(=O)NC5=O)C6=O)CC3)CC4)nc2n1-c1cccc(C(C)(C)O)n1 (stereo not drawn) [Compound 7] | > 1 | < 50 | > 0.1 | –
19 | C=CCn1c(=O)c2cnc(Nc3ccc(C4CCN(CC5CCN(c6ccc7c(c6)C(=O)N(C6CCC(=O)NC6=O)C7=O)CC5)CC4)cc3)nc2n1-c1cccc(C(C)(C)O)n1 (stereo not drawn) [Compound 21] | < 0.1 | 50 to 75 | 0.025 to 0.1 | –
20 | C=CCn1c(=O)c2cnc(Nc3ccc(N4CCN(CC5CN(c6ccc7c(c6)C(=O)N(C6CCC(=O)NC6=O)C7=O)C5)CC4)cc3)nc2n1-c1cccc(C(C)(C)O)n1 (stereo not drawn) [Compound 10] | < 0.1 | 50 to 75 | 0.025 to 0.1 | –
21 | C=CCn1c(=O)c2cnc(Nc3ccc(N4CCN(CC5CCN(c6cc7c(cc6F)c(N6CCC(=O)NC6=O)nn7C)CC5)CC4)nc3)nc2n1-c1ccc2c(n1)[C@@](O)(CC)CC2 [Compound 194] | < 0.1 | > 75 | ≤ 0.025 | –
22 | C=CCn1c(=O)c2cnc(Nc3ccc(N4CCN(CC5CCN(c6ccc7c(C8CCC(=O)NC8=O)nn(C)c7c6)CC5)CC4)cc3)nc2n1-c1cccc(C(C)(C)O)n1 (stereo not drawn) [Compound 76] | < 0.1 | 50 to 75 | ≤ 0.025 | –
23 | O=C1CCC(N2C(=O)c3ccc(N4CCC(CN5CCC(c6ccc(Nc7ncc8c(=O)n(-c9c(Cl)cccc9Cl)c9nccn9c8n7)cc6)CC5)CC4)cc3C2=O)C(=O)N1 (stereo not drawn) [Compound 14] | < 0.1 | 50 to 75 | 0.025 to 0.1 | –
24 | C=CCn1c(=O)c2cnc(Nc3ccc(C4CCN(CN5CCN(c6ccc7c(N8CCC(=O)NC8=O)nn(C)c7c6)CC5)CC4)cc3)nc2n1-c1cccc(C(C)(C)O)n1 [Compound 89] | < 0.1 | > 75 | ≤ 0.025 | –
25 | C=CCn1c(=O)c2cnc(Nc3ccc(N4CCN(CC5CCN(c6cc7c(cc6F)c(N6CCC(=O)NC6=O)nn7C)CC5)CC4)nc3)nc2n1-c1ccc2c(n1)[C@](C)(O)CC2 [Compound 197] | < 0.1 | > 75 | ≤ 0.025 | –
26 | C=CCn1c(=O)c2cnc(Nc3ccc(N4CCN(CC5CCN(c6ccc7c(N8CCC(=O)NC8=O)nn(C)c7c6)CC5)CC4)cc3)nc2n1-c1ccc2c(n1)[C@](C)(O)CC2 [Compound 115] | < 0.1 | > 75 | ≤ 0.025 | –
27 | C=CCn1c(=O)c2cnc(Nc3ccc(N4CC5(CCN(C6CN(c7ccc(NC8CCC(=O)NC8=O)cc7F)C6)CC5)C4)cc3)nc2n1-c1ccc2c(n1)[C@@](O)(CC)CC2 (stereo partly drawn) [Compound 179] | < 0.1 | > 75 | ≤ 0.025 | –
28 | C=CCn1c(=O)c2cnc(Nc3ccc(N4CCC(CN(C)C5CCN(c6ccc(NC7CCC(=O)NC7=O)cc6F)CC5)CC4)cc3)nc2n1-c1cccc(C(C)(C)O)n1 (stereo not drawn) [Compound 91] | < 0.1 | > 75 | ≤ 0.025 | –
